Data: patent US6046171A, “6,11-bridged erythromycin derivatives” (priority 1998, dated 2000)
Converted amounts (≈) assume the structure as drawn.

Experiments:
Type in all cases: cell-based
[1] = test system: Staphylococcus aureus ATCC 6538P; experiment: in vitro antibacterial MIC, agar dilution (BHI agar, Steers replicator); settings: organism code AA; 35-37° C., 20 to 24 hours; unit assumed
Experimental: (§1) Representative compounds of the present invention were assayed in vitro for antibacterial activity as follows: Twelve petri dishes containing successive aqueous dilutions of the test compound mixed with 10 mL of sterilized Brain Heart Infusion (BHI) agar (Difco 0418-01-5) were prepared. Each plate was inoculated with 1:100 (or 1:10 for slow-growing strains, such as Micrococcus and Streptococcus) dilutions of up to 32 different microorganisms, using a Steers replicator block. […] In addition, a control plate, using BHI agar containing no test compound, was prepared and incubated at the beginning and end of each test.
(§2) An additional plate containing a compound having known susceptibility patterns for the organisms being tested and belonging to the same antibiotic class as the test compound was also prepared and incubated as a further control, as well as to provide test-to-test comparability.
(§3) After incubation, each plate was visually inspected. The minimum inhibitory concentration (MIC) was defined as the lowest concentration of drug yielding no growth, a slight haze, or sparsely isolated colonies on the inoculum spot as compared to the growth control.

[2] = test system: Enterococcus faecium ATCC 8Q43; experiment: in vitro antibacterial MIC, agar dilution; settings: organism code II; 35-37° C., 20 to 24 hours; unit assumed
Experimental: as §1, §2, §3

[3] = test system: Staphylococcus aureus CMX 553; experiment: in vitro antibacterial MIC, agar dilution; settings: organism code FF; 35-37° C., 20 to 24 hours; unit assumed
Experimental: as §1, §2, §3

[4] = test system: Staphylococcus aureus CMX 642A; experiment: in vitro antibacterial MIC, agar dilution; settings: organism code DD; 35-37° C., 20 to 24 hours; unit assumed
Experimental: as §1, §2, §3

[5] = test system: Haemophilis Influenzae DILL AMP R; experiment: in vitro antibacterial MIC, agar dilution; settings: organism code WW; 35-37° C., 20 to 24 hours; unit assumed
Experimental: as §1, §2, §3

[6] = test system: Staphylococcus epidermidis 3519; experiment: in vitro antibacterial MIC, agar dilution; settings: organism code HH; 35-37° C., 20 to 24 hours; unit assumed
Experimental: as §1, §2, §3

[7] = test system: Streptococcus Pheumoniae 5979; experiment: in vitro antibacterial MIC, agar dilution; settings: organism code ZZ; 35-37° C., 20 to 24 hours; unit assumed
Experimental: as §1, §2, §3

[8] = test system: Streptococcus Pheumoniae 5649; experiment: in vitro antibacterial MIC, agar dilution; settings: organism code ZZA; 35-37° C., 20 to 24 hours; unit assumed
Experimental: as §1, §2, §3

[9] = test system: Escherichia coli SS; experiment: in vitro antibacterial MIC, agar dilution; settings: organism code RR; 35-37° C., 20 to 24 hours; unit assumed
Experimental: as §1, §2, §3

[10] = test system: Streptococcus pyogenes EES61; experiment: in vitro antibacterial MIC, agar dilution; settings: organism code LL; 35-37° C., 20 to 24 hours; unit assumed
Experimental: as §1, §2, §3

[11] = test system: Nocardia Asteroides ATCC9970; experiment: in vitro antibacterial MIC, agar dilution; settings: organism code VV; 35-37° C., 20 to 24 hours; unit assumed
Experimental: as §1, §2, §3

[12] = test system: Streptococcus pyogenes PIU 2548; experiment: in vitro antibacterial MIC, agar dilution; settings: organism code NN; 35-37° C., 20 to 24 hours; unit assumed
Experimental: as §1, §2, §3

[13] = test system: Micrococcus luteus ATCC 4698; experiment: in vitro antibacterial MIC, agar dilution; settings: organism code PP; 35-37° C., 20 to 24 hours; unit assumed
Experimental: as §1, §2, §3

[14] = test system: Micrococcus luteus ATCC 9341; experiment: in vitro antibacterial MIC, agar dilution; settings: organism code OO; 35-37° C., 20 to 24 hours; unit assumed
Experimental: as §1, §2, §3

[15] = test system: Streptococcus bovis A-5169; experiment: in vitro antibacterial MIC, agar dilution; settings: organism code JJ; 35-37° C., 20 to 24 hours; unit assumed
Experimental: as §1, §2, §3

[16] = test system: Streptococcus agalactiae CMX 508; experiment: in vitro antibacterial MIC, agar dilution; settings: organism code KK; 35-37° C., 20 to 24 hours; unit assumed
Experimental: as §1, §2, §3

[17] = test system: Staphylococcus aureus NCTC10649M; experiment: in vitro antibacterial MIC, agar dilution; settings: organism code EE; 35-37° C., 20 to 24 hours; unit assumed
Experimental: as §1, §2, §3

[18] = test system: Staphylococcus aureus A5177; experiment: in vitro antibacterial MIC, agar dilution; settings: organism code BB; 35-37° C., 20 to 24 hours; unit assumed
Experimental: as §1, §2, §3

[19] = test system: Mycobacterium smegmatis ATCC 114; experiment: in vitro antibacterial MIC, agar dilution; settings: organism code UU; 35-37° C., 20 to 24 hours; unit assumed
Experimental: as §1, §2, §3

[20] = test system: Streptococcus pyogenes 930; experiment: in vitro antibacterial MIC, agar dilution; settings: organism code MM; 35-37° C., 20 to 24 hours; unit assumed
Experimental: as §1, §2, §3

Compound	MIC [1] [µg/mL]	MIC [2] [µg/mL]	MIC [3] [µg/mL]	MIC [4] [µg/mL]	MIC [5] [µg/mL]	MIC [6] [µg/mL]	MIC [7] [µg/mL]	MIC [8] [µg/mL]	MIC [9] [µg/mL]	MIC [10] [µg/mL]	MIC [11] [µg/mL]	MIC [12] [µg/mL]	MIC [13] [µg/mL]	MIC [14] [µg/mL]	MIC [15] [µg/mL]	MIC [16] [µg/mL]	MIC [17] [µg/mL]	MIC [18] [µg/mL]	MIC [19] [µg/mL]	MIC [20] [µg/mL]
CC[C@H]1OC(=O)[C@H](C)[C@@H](O[C@H]2C[C@@](C)(OC)[C@@H](O)[C@H](C)O2)[C@H](C)[C@@H](O[C@@H]2O[C@H](C)C[C@H](N(C)C)[C@H]2O)[C@@]2(C)C[C@@H](C)C(=O)[C@H](C)[C@H]3N(CCNC(=O)c4ccccc4C=CCO2)C(=O)O[C@]13C [Example 4]	1.56 (≈ 1.65 µM)	0.39 (≈ 0.413 µM)	1.56 (≈ 1.65 µM)	1.56 (≈ 1.65 µM)	16 (≈ 16.9 µM)	1.56 (≈ 1.65 µM)	> 128	16 (≈ 16.9 µM)	6.2 (≈ 6.57 µM)	0.39 (≈ 0.413 µM)	0.2 (≈ 0.212 µM)	12.5 (≈ 13.2 µM)	1.56 (≈ 1.65 µM)	–	–	–	–	–	–	–
CC[C@H]1OC(=O)[C@H](C)[C@@H](O[C@H]2C[C@@](C)(OC)[C@@H](O)[C@H](C)O2)[C@H](C)[C@@H](O[C@@H]2O[C@H](C)C[C@H](N(C)C)[C@H]2O)[C@@]2(C)C[C@@H](C)C(=O)[C@H](C)[C@H]3N(CCNC(=O)Cc4ccccc4C=CCO2)C(=O)O[C@]13C [Example 6]	0.78 (≈ 0.814 µM)	0.39 (≈ 0.407 µM)	0.78 (≈ 0.814 µM)	1.56 (≈ 1.63 µM)	8 (≈ 8.35 µM)	0.78 (≈ 0.814 µM)	> 128	16 (≈ 16.7 µM)	3.1 (≈ 3.24 µM)	0.2 (≈ 0.209 µM)	0.39 (≈ 0.407 µM)	12.5 (≈ 13 µM)	0.78 (≈ 0.814 µM)	0.1 (≈ 0.104 µM)	0.1 (≈ 0.104 µM)	0.1 (≈ 0.104 µM)	1.56 (≈ 1.63 µM)	12.5 (≈ 13 µM)	0.39 (≈ 0.407 µM)	–
CC[C@H]1OC(=O)[C@H](C)[C@@H](O[C@H]2C[C@@](C)(OC)[C@@H](OC(C)=O)[C@H](C)O2)[C@H](C)[C@@H](O[C@@H]2O[C@H](C)C[C@H](N(C)C)[C@H]2O)[C@@]2(C)C[C@@H](C)C(=O)[C@H](C)[C@H]3N(CCNCc4cccc(c4)C=CCO2)C(=O)O[C@]13C [Example 10]	6.2 (≈ 6.38 µM)	0.78 (≈ 0.802 µM)	6.2 (≈ 6.38 µM)	6.2 (≈ 6.38 µM)	–	6.2 (≈ 6.38 µM)	–	8 (≈ 8.23 µM)	6.2 (≈ 6.38 µM)	0.78 (≈ 0.802 µM)	1.56 (≈ 1.6 µM)	6.2 (≈ 6.38 µM)	1.56 (≈ 1.6 µM)	0.39 (≈ 0.401 µM)	0.39 (≈ 0.401 µM)	0.39 (≈ 0.401 µM)	6.2 (≈ 6.38 µM)	25 (≈ 25.7 µM)	0.39 (≈ 0.401 µM)	25 (≈ 25.7 µM)
CC[C@H]1OC(=O)[C@H](C)[C@@H](O[C@H]2C[C@@](C)(OC)[C@@H](O)[C@H](C)O2)[C@H](C)[C@@H](O[C@@H]2O[C@H](C)C[C@H](N(C)C)[C@H]2O)[C@@]2(C)C[C@@H](C)C(=O)[C@H](C)[C@H]3N(CCNCc4cccc(c4)C=CCO2)C(=O)O[C@]13C [Example 11]	–	0.2 (≈ 0.215 µM)	–	–	32 (≈ 34.4 µM)	–	> 128	32 (≈ 34.4 µM)	6.2 (≈ 6.67 µM)	–	–	–	–	–	–	–	–	–	–	–
CC[C@H]1OC(=O)[C@H](C)C(=O)[C@H](C)[C@@H](O[C@@H]2O[C@H](C)C[C@H](N(C)C)[C@H]2O)[C@@]2(C)C[C@@H](C)C(=O)[C@H](C)[C@H]3N(CCOCc4ccccc4C=CCO2)C(=O)O[C@]13C [Example 12]	0.78 (≈ 1.01 µM)	0.1 (≈ 0.13 µM)	0.78 (≈ 1.01 µM)	0.78 (≈ 1.01 µM)	16 (≈ 20.8 µM)	0.78 (≈ 1.01 µM)	128 (≈ 166 µM)	1 (≈ 1.3 µM)	1.56 (≈ 2.02 µM)	–	0.78 (≈ 1.01 µM)	–	–	–	–	–	0.78 (≈ 1.01 µM)	0.78 (≈ 1.01 µM)	0.78 (≈ 1.01 µM)	50 (≈ 64.9 µM)
